Values quoted from earlier work in patent US20120046172A1, “METHODS FOR USE OF TRIALKYLBENZYLAMMONIUM HALIDE COMPOSITIONS AS NON-SELECTIVE TERRESTRIAL PLANT HERBICIDES” (priority 2010, published 2012).

How the values were obtained:
[1] = tested on: bean plants; settings: compositions with ADBAC concentrations in the range of 0.1 to 1%; DD215228
[2] = tested on: wheat plants; settings: compositions with ADBAC concentrations in the range of 0.1 to 1%; DD215228

alkyldimethylbenzyl ammonium chloride [ADBAC]
Effect on bean plants [1]: leaf desiccation and defoliation | Effect on wheat plants [2]: plant stunting
